{
  "source": "paper PMC6934184",
  "about": "“Selective DNA-PKcs inhibition extends the therapeutic index of localized radiotherapy and chemotherapy” (The Journal of Clinical Investigation, 2019)",
  "target": "T1, PDGFRA T674I (Homo sapiens, UniProt P16234, T674I)",
  "T1 construct": "purchased Thermo Fisher Scientific (Life Technologies) SelectScreen",
  "T1 sequence (P16234 24-1089 T674I)": "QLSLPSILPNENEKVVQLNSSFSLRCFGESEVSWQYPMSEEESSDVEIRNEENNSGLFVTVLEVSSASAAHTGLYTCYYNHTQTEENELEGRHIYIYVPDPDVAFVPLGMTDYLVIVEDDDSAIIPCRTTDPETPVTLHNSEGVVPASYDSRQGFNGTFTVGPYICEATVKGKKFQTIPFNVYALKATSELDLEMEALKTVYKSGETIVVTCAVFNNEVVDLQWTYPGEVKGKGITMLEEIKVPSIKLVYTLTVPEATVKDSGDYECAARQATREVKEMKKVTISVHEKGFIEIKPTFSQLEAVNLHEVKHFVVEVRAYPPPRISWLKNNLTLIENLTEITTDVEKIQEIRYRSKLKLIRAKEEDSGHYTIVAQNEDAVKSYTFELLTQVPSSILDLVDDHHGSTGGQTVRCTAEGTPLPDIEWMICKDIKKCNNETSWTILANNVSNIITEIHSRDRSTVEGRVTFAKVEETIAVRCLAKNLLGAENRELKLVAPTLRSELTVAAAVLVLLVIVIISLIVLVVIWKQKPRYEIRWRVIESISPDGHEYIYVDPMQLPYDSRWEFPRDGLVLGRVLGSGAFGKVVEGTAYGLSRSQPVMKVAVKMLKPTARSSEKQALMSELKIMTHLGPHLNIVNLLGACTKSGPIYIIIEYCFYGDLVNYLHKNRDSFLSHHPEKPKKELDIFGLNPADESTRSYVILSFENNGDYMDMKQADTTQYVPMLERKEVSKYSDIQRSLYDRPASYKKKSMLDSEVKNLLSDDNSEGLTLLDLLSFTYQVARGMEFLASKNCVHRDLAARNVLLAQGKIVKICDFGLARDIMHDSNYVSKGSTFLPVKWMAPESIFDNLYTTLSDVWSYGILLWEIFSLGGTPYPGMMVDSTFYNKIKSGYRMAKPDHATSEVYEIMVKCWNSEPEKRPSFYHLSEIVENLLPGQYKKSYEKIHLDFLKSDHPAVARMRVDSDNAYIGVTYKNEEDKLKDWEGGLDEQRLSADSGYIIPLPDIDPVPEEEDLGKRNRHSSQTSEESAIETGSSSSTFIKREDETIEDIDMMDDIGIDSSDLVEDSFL",
  "experiment": "SelectScreen Z'LYTE",
  "assay_type": "biochemical",
  "procedure,_shortened": "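NU5455 was profiled across the SelectScreen Broad panel of kinase activity and binding assays. Z'LYTE reactions such as CSF1R ran at apparent Km ATP, while the Adapta CAMK1 assay used ATP listed as 10. Values are given as percent.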",
  "data": [
    {"compound": "CN(C(=O)CN1CCOCC1)c1ccc2sc3c(-c4cccc5c(=O)cc(N6CC7CCC(C6)O7)oc45)cccc3c2c1", "note": "[NU5455]", "values": [
      {"measurement": "inhibition at 1 µM", "result": -8.9, "unit": "%"}
    ]}
  ]
}
